# How the values were obtained:
# [1] = Available chlorine concentration after impregnating diluent in treatment sheet; type: physicochemical
# Method: (1) The available chlorine concentration of the “chlorous acid aqueous solution formulation (see Example 1: Table 11)” was measured, and the formulation was diluted to an available chlorine concentration of 1000 ppm [chlorous acid (HClO2) concentration: 489 ppm] or 500 ppm [chlorous acid (HClO2) concentration: 245 ppm]. (2) The available chlorine concentration of sodium hypochlorite was measured, and the sodium hypochlorite was diluted to an available chlorine concentration of 1000 ppm or 500 ppm. (3) The available chlorine concentration of the diluted solution was measured to find the available chlorine concentration prior to contact with a treatment sheet. (4) Treatment sheets were stacked, rolled up and inserted into a 200 ml-capacity PET bottle. A solution diluted so that the weight ratio of treatment sheet: agent solution would be 1:3 was poured into the 200 ml-capacity PET bottle containing the treatment sheets. (5) After contact with treatment sheets, treatment sheets were pulled out from the 200 ml-capacity PET bottle immediately after contact, after 1 hour, after 2 hours, after 3 hours, after 12 hours, after 24 hours, after 48 hours (after 2 days), after 72 hours (after 3 days), and after 168 hours (after 7 days). The sheets were used as specimens for examining available chlorine concentrations. (6) Solutions from the treatment sheets, the specimens pulled out from the 200 ml-capacity PET bottle, were wrung out into a 100 mL beaker. The available chlorine concentration of the solution was measured.
# 1. About 5 g of solution that was wrung out from the specimen was collected in a triangular flask with a stopper. 2. After adding 10 mL of 10 w/w % potassium iodide to the triangular flask with a stopper, 10 mL of 10% sulfuric acid was added. 3. After sealing, the mixture was left standing for 15 minutes in the dark. 4. 0.1 mol/L sodium thiosulfate solution was added until the color became light yellow. About 1 mL of 1 w/w % starch solution was added, and 0.1 mol/L sodium thiosulfate solution was added until the color of the solution became colorless. 5. Chlorine titer was found by the following equation.
# R; Chlorine titer value a; Amount of 0.1 mol/L sodium thiosulfate solution added (g) f; Factor of 0.1 mol/L sodium thiosulfate solution w; Weight of measured specimen solution (g) 0.0035; Amount of chlorine corresponding to 1 g of 0.1 mol/L sodium thiosulfate 100; Percentage
# [2] = Deodorizing effect (chemical deodorization, gas detector tube); settings: 400 ppm, spray 20 cc
# Excerpt: In order to evaluate tests on deodorizing effects, the present Example examined deodorizing effects by using standards regarding air freshening and deodorization ([II]-2 Method of Testing Deodorizing Efficacy (Chemical Deodorization)) set forth by the Air Fresheners and Deodorizers Conference (http://www.houkou.gr.jp/) as the efficacy testing method, which is adopted by Japan Food Research Laboratories.
# Ammonium odor: Ammonium Standard Solution II (Wako Pure Chemical Industries, for testing malodorous substances) Amine odor: methyl mercaptan standard solution (Wako Pure Chemical Industries, for testing malodorous substances) Sulfur odor: hydrogen sulfide (self-made, used hydrogen sulfide that was generated by adding sulfuric acid to zinc sulfide)
# Gas detector tube made by GASTEC Corporation Ammonium odor: Detector tube ammonium 3 L made by GASTEC Corporation Amino odor: Detector tube methyl mercaptan 71 made by GASTEC Corporation Sulfur odor: Detector tube hydrogen sulfide 4 LL made by GASTEC Corporation
# Tests were conducted in compliance with ([II]-2 Method of Testing Deodorizing Efficacy (Chemical Deodorization)) set forth by the Air Fresheners and Deodorizers Conference.
# The tests were carried out by static culture method, using a commercially-available airbag with a spigot having a volume of about 10 L as test containers. The volume of airbags was appropriately changed in accordance with the size of the product.
# The bags were filled with odorless air. Malodor concentrations were measured over time at room temperature (about 20° C.). (3 points or higher, detection tube method (FIG. 16), measured by an instrument analysis method or olfactory measurement method. When decrease in the blank was observed, the decrease was suitably corrected. When measuring by olfactory measuring method, the airbag spigot was opened for direct sniffing, or gas was transferred to an odor bag while wearing a mask to perform olfactory measurement in an autonomic respiration form. Measured air was not returned to the source).
# For ammonium odor, the residual concentrations were detected and recorded for control (no specimen), 20 ml (cc) of distilled water, sodium hypochlorite (expressed as Na hypochlorite, 400 ppm), and chlorous acid aqueous solution (expressed as CAAS, 400 ppm) prior to spraying and 0 hour, 3 hours, 6 hours, 9 hours, and 24 hours after spraying.
# It is known that an odorous substance adsorbs to an airbag and naturally decreases when the odorous substance is in the airbag. In this regard, the amount of loss due to such a natural decrease was measured to normalize the observed values in a control segment.
# For the values, the values of the raw data were recorded. The concentration prior to spraying was adjusted and the controls were normalized to be 100. The results are shown in the following Table (In the Table, Cont indicates controls and h indicates time).
compound,measurement,setting,value
"OCl [Sodium Hypochlorite, sodium hypochlorite]",Available Chlorine Concentration,"[1]; set concentration 500, 1 hour of contact",175 ppm
same,Available Chlorine Concentration,"[1]; set concentration 500, 2 hours of contact",168 ppm
same,Available Chlorine Concentration,"[1]; set concentration 500, 3 hours of contact",144 ppm
same,Available Chlorine Concentration,"[1]; set concentration 500, 12 hours of contact",91 ppm
same,Available Chlorine Concentration,"[1]; set concentration 500, 24 hours of contact",68 ppm
same,Available Chlorine Concentration,"[1]; set concentration 500, 48 hours of contact",39 ppm
same,Available Chlorine Concentration,"[1]; set concentration 500, 72 hours of contact",39 ppm
same,Available Chlorine Concentration,"[1]; set concentration 500, 168 hours of contact",37 ppm
same,Available Chlorine Concentration,"[1]; set concentration 500, 504 hours of contact",32 ppm
same,Available Chlorine Concentration,"[1]; set concentration 500, 720 hours of contact",20 ppm
same,Available Chlorine Concentration,"[1]; set concentration 500, before contact with treatment sheet",549 ppm
same,Available Chlorine Concentration,"[1]; set concentration 500, immediately after contact",352 ppm
same,Available Chlorine Concentration,"[1]; set concentration 1000, 1 hour of contact",631 ppm
same,Available Chlorine Concentration,"[1]; set concentration 1000, 2 hours of contact",595 ppm
same,Available Chlorine Concentration,"[1]; set concentration 1000, 3 hours of contact",515 ppm
same,Available Chlorine Concentration,"[1]; set concentration 1000, 12 hours of contact",184 ppm
same,Available Chlorine Concentration,"[1]; set concentration 1000, 24 hours of contact",89 ppm
same,Available Chlorine Concentration,"[1]; set concentration 1000, 48 hours of contact",76 ppm
same,Available Chlorine Concentration,"[1]; set concentration 1000, 72 hours of contact",54 ppm
same,Available Chlorine Concentration,"[1]; set concentration 1000, 168 hours of contact",40 ppm
same,Available Chlorine Concentration,"[1]; set concentration 1000, 504 hours of contact",34 ppm
same,Available Chlorine Concentration,"[1]; set concentration 1000, 720 hours of contact",24 ppm
same,Available Chlorine Concentration,"[1]; set concentration 1000, before contact with treatment sheet",1045 ppm
same,Available Chlorine Concentration,"[1]; set concentration 1000, immediately after contact",690 ppm
same,"residual concentration of ammonium, after correction (Control = 100)",[2]; 0 h after spraying,9
same,"residual concentration of ammonium, before correction",[2]; 0 h after spraying,30 ppm
same,"residual concentration of ammonium, after correction (Control = 100)",[2]; 3 h after spraying,17
same,"residual concentration of ammonium, before correction",[2]; 3 h after spraying,50 ppm
same,"residual concentration of ammonium, after correction (Control = 100)",[2]; 6 h after spraying,21
same,"residual concentration of ammonium, before correction",[2]; 6 h after spraying,50 ppm
same,"residual concentration of ammonium, after correction (Control = 100)",[2]; 9 h after spraying,23
same,"residual concentration of ammonium, before correction",[2]; 9 h after spraying,40 ppm
same,"residual concentration of ammonium, after correction (Control = 100)",[2]; 24 h after spraying,28
same,"residual concentration of ammonium, before correction",[2]; 24 h after spraying,40 ppm
same,"residual concentration of ammonium, after correction (Control = 100)",[2]; before spraying,100
same,"residual concentration of ammonium, before correction",[2]; before spraying,320 ppm

# From patent US20170015555A1, “LONG-TERM PRESERVATION AND NOVEL APPLICATION OF CHLOROUS ACID AQUEOUS SOLUTION FORMULATION” (priority 2013, published 2017)
